Results reported in patent publication US20030134342A1, “Binding-specific peptides, binding-specific carrier molecules, and uses thereof” (priority 2001, published 2003).

Tests used:
[1] = test system: AML bone marrow cells; assay: Methylcellulose culture of AML bone marrow cells with peptides: proliferation (colonies) and differentiation (morphology); type: cell-based, human; conditions: for Activation of Proliferation / Cell Differentiation / Activation of Proliferation GM-CSF / Cell Differentiation GM-CSF / Inhibition of Proliferation: fraction, not explained; for Activation of Proliferation GM-CSF / Cell Differentiation GM-CSF: with GM-CSF; for Activation of Proliferation (Patient No.) +GM-CSE: peptide with GM-CSF
Procedure: The effect of various peptides were analyzed for their biological activity on cells from a patient with acute myelogenous leukemia. The AML cells were cultured into a semi-solid medium of methylcellulose in order to determine the cloning efficiency and the differentiation of the cells. The various peptides were introduced into the semi-solid cell culture at a concentration of 10^−4 M (0.1 mM) peptide. After 14 days continuous incubation of the cell cultures, the morphology of the cells were analyzed. The data are shown in FIG. 7 for the cultures and show the percentage of immature cells in the culture (solid black), the percentage of small myeloblasts (solid white), the percentage of young cells (dark gray), and the relative percentage of monocytes to […] (light gray). The data regarding the biological response of AML bone marrow cells in the presence of the various peptides is shown in the table below.

[2] = test system: all myeloid cells, both malignant and nonmalignant; assay: ELISA binding of phage displaying peptides to fixed cells: all myeloid cells; parameters: species or system human; conditions: in words
Procedure: (§1) Preliminary experiments were performed to identify specific peptides by using cells from patients diagnosed with CLL, CML, and AML. The screening was performed by incubating the cells with the phage-peptides from the library. This incubation allows interaction between the peptide and the cell. The binding step was followed by several washes to eliminate free phage. Phage bound on the cell surface was eluted.
(§2) After the last round of binding with one cell type, the eluted phage was plated on an agar plate with the appropriate selection antibiotics. Each individual colony, corresponding to one individual peptide sequence, was amplified in a 96-well plate. After purification, these peptides were tested for their ability to bind to the cells in a microtiter plate by ELISA.
(§3) Each peptide was dispensed in a 96-well plate, containing cells previously fixed. Each colony was tested in a triplicate assay with the appropriate controls. After incubation of cells with an individual clone, the wells were washed to eliminate free phage. The bound phages were detected by using a monoclonal anti-M13 antibody/horseradish peroxidase (HRP) conjugate. After addition of the HRP substrate, the intensity of the coloration was measured by spectrophotometry. The light absorbance values (optical density values, O.D. values) are proportional to the number of phage bound to the cells.
(§4) The binding to various cell types were examined to evaluate the cellular specificity of the phage clones. For example, the clones from phage eluted from CLL patient cells were assayed for their ability to bind cells from an AML patient. Cells from normal donors (non-leukemic) were also evaluated to ascertain leukemia cell specificity.
(§5) Peripheral blood and bone marrow samples were collected from patients after informed consent. The samples were collected in tubes containing sodium citrate. Mononuclear cells were isolated by Ficoll-Hypaque density gradient separation and collection of the cells at a density of 1.077 g/mL.
(§6) The wells of a 96-well plate were pre-treated with 100 μL of poly-L-lysine (0.01 mg/mL in phosphate-buffered saline, 120 mM NaCl, 2.7 mM KCl, 10 mM phosphate buffer, “PBS”) for 2-16 hours at room temperature. After draining the poly-L-lysine from the wells, the excess poly-L-lysine was removed from the wells by flicking. The cells were washed with PBS, then suspended in PBS and diluted to a final concentration of […]. The cell suspension (200 μL; 250,000 cells) were added to each well needed for the assay.
(§7) The plates were centrifuged at 500 g for about 5 minutes in a microplate carrying centrifuge when available. The cells were fixed to the wells through the addition of glutaraldehyde (100 μL of 0.5%) and incubating at room temperature for about an hour. The glutaraldehyde was removed and the cell-coated wells washed once with PBS. Alternatively, the cells were permitted to settle to the well bottoms for about 4 hours at 37° C., and the glutaraldehyde fixative was added after removing the PBS.
(§8) A glycine solution (200 μl of 0.1 M glycine in PBS) containing bovine serum albumin (BSA; 1%) was added to the wells and permitted to incubate for 30 minutes to block excess glutaraldehyde. The glycine was removed, and the cell-coated wells washed once with PBS. A sodium pyrophosphate solution (200 μL of 0.3 mg/mL NaPPi) was added to the wells and incubated for an hour at room temperature to neutralize lysine charges. The pyrophosphate solution was removed and the wells washed once with PBS. Multiwell microtiter plates with cell-coated wells were stored at 4° C. with fresh PBS solution in the coated wells.
(§9) The cells to be studied for binding were suspended in PBS and adsorbed onto to a poly-L-lysine pretreated 96-well plate and kept at 4° C. The PBS was removed from the wells and an H2O2 solution in PBS (6% H2O2 in 200 μL/well) was added. […]

[3] = test system: human bone marrow AML cells; assay: Effect of phage-peptides on differentiation, cell number and viability of freshly obtained AML patient bone marrow cells cultured seven days; type: cell-based; conditions: for Number of Cells / Percent Differentiation / Viability: phage-peptides; for Percent differentiated in Specimen 1 / Percent differentiated in Specimen 2: peptides in bacteriophage, AML cells cultured seven days in vitro
Source text: The effect of various phage-peptides were studied on the differentiation of cells from two AML patients.

[4] = test system: CML cells; assay: ELISA binding of phage displaying peptides to fixed cells: CML cells; parameters: species or system human; conditions: in words
Procedure: as §1, §2, §3, §4, §5, §6, §7, §8, §9

[5] = test system: AML cells; assay: ELISA binding of phage displaying peptides to fixed cells: AML cells; parameters: species or system human; conditions: in words
Procedure: as §1, §2, §3, §4, §5, §6, §7, §8, §9

[6] = test system: CLL cells; assay: ELISA binding of phage displaying peptides to fixed cells: CLL cells; parameters: species or system human; conditions: in words
Procedure: as §1, §2, §3, §4, §5, §6, §7, §8, §9

[7] = test system: normal peripheral blood cells (lymphocytes and granulocytes); assay: ELISA binding of phage displaying peptides to fixed cells: normal peripheral blood cells; parameters: species or system human; conditions: in words
Procedure: as §1, §2, §3, §4, §5, §6, §7, §8, §9

[8] = numbers of the AML patients whose cells responded

## CDEKRGPNEC [B4 C10]
[1]; peptide alone
  Activation of Proliferation: 1/6
  Cell Differentiation: 2/4
[1]
  Activation of Proliferation GM-CSF: 1/2
  Cell Differentiation GM-CSF: 0/2
[1]; numbers of the AML patients whose cells responded, peptide alone, 10^−4 M, 14 days
  Activation of Proliferation (Patient No.): 9
[1]; [8]
  Activation of Proliferation (Patient No.) +GM-CSE: 11

## VSEDIYDA [F1 12-8B]
[2]
  binding of phage displaying the peptide to all myeloid cells, both malignant and nonmalignant: bind
[3]; Patient 1
  Number of Cells: 0.82 106
  Percent Differentiation: 34%
[3]; Patient 2
  Number of Cells: 0.22 106
  Percent Differentiation: 52%
[3]
  Percent differentiated in Specimen 1: 34%
  Percent differentiated in Specimen 2: 52%
[4]
  binding of phage displaying the peptide to CML cells: binds and bind
[5]
  binding of phage displaying the peptide to AML cells: binds and bind
[6]
  binding of phage displaying the peptide to CLL cells: not

## IEETARKG [D9 12-8B]
[2]
  binding of phage displaying the peptide to all myeloid cells, both malignant and nonmalignant: bind
[7]
  binding of phage displaying the peptide to blood cells (lymphocytes or granulocytes): bind
[4]
  binding of phage displaying the peptide to CML cells: bind
[5]
  binding of phage displaying the peptide to AML cells: bind
[6]
  binding of phage displaying the peptide to CLL cells: bind

## EFQQWSGK [H3 11-24]
[6]
  binding of phage displaying the peptide to CLL cells: bind

## IEETARKG [A2 11-24 no Cys]
[1]; peptide alone
  Activation of Proliferation: 4/14
  Cell Differentiation: 4/13
[1]
  Activation of Proliferation GM-CSF: 1/2
  Cell Differentiation GM-CSF: 2/2
[1]; in words
  activity on cell differentiation compared with the peptide with cysteine residues (FIG. 8): higher activity
[1]; in words, AML bone marrow cells, 14 days methylcellulose
  induction of differentiation of the patient cells (FIG. 8): able to induce the differentiation
[1]; [8]
  Activation of Proliferation (Patient No.) +GM-CSE: 11

## CNNATFEDGC [G2 12-8A]
[1]; peptide alone
  Activation of Proliferation: 6/14
  Cell Differentiation: 2/12
  Inhibition of Proliferation: 1/14
[1]
  Activation of Proliferation GM-CSF: 2/5
  Cell Differentiation GM-CSF: 2/5

## DEKRGPNE [B4(1)]
[3]; Patient 1
  Number of Cells: 1.3 106
[3]; Patient 2
  Number of Cells: 0.25 106
  Percent Differentiation: 53%
[3]
  Percent differentiated in Specimen 2: 53%
[4]
  binding of phage displaying the peptide to CML cells: bind
[5]
  binding of phage displaying the peptide to AML cells: bind

## granulocyte-macrophage colony-stimulating factor [GM-CSF]
[3]; Patient 1
  Number of Cells: 1.57 106
  Percent Differentiation: 21%
  Viability: 80%
[3]; Patient 2
  Number of Cells: 0.87 106
  Percent Differentiation: 16.5%
  Viability: 89%
[3]
  Percent differentiated in Specimen 1: 21%
  Percent differentiated in Specimen 2: 17%

## NHVCSRLG [B6 11-24]
[2]
  binding of phage displaying the peptide to all myeloid cells, both malignant and nonmalignant: bind

## NELHMKQH [G6 12-8B]
[2]
  binding of phage displaying the peptide to all myeloid cells, both malignant and nonmalignant: bind

## CNELHMKQHC [G7 12-8B]
[1]; peptide alone
  Activation of Proliferation: 2/6
  Cell Differentiation: 4/5
[1]
  Activation of Proliferation GM-CSF: 0/2
  Cell Differentiation GM-CSF: 0/2

## EFQQWSGK [G5 12-8B no Cys]
[1]; patient numbers
  Activation of Differentiation: 3

## CNHVCSRLGC [B6 12-8B]
[1]; peptide alone
  Activation of Proliferation: 5/14
  Cell Differentiation: 3/13
  Inhibition of Proliferation: 3/14
[1]
  Activation of Proliferation GM-CSF: 3/5
  Cell Differentiation GM-CSF: 2/5
